Measured values published in article PMC6588697, “Lugdunin amplifies innate immune responses in the skin in synergy with host- and microbiota-derived factors” (Nature Communications, 2019).
“And” between values parts separate entries of the source, which are not always exact repeats. Equal values may be shown once.

B1: IL-1: interleukin-1α, 10 ng/mL, control in Fig 4b (protein, UniProt P01583 113-271, looked up)
Interleukin-1 alpha: SAPFSFLSNVKYNFMRIIKYEFILNDALNQSIIRANDQYLTAAALHNLDEAVKFDMGAYKSSKDDAKITVILRISKTQLYVTAQDEDQPVLLKEMPEIPKTITGSETNLLFFWETHGTKNYFTSVAHPNLFIATKQDYWVCLAGGPPSITDFQILENQA

What was measured:
Type in all cases: cell-based, human
[1] = system: PHKs; assay: CXCL8 expression in PHKs (qRT-PCR, normalized to actin); conditions: PHKs, 5 h
Method: Fig. 1 Lugdunin sensitizes epithelial cells for innate immune defense. a Primary human keratinocytes (PHKs) were pretreated with S. epidermidis conditioned medium (CM), indicated lugdunin concentrations, or the combination of both for 20 h. Subsequently, cells were infected with S. aureus for 1.5 h followed by cell lysis and determination of colony-forming units (CFUs). Shown is one representative experiment of three independent experiments with six technical replicates ± s.e.m. n.s., not significant. b Dorsal skin of mice was pretreated with S. epidermidis CM, 1.5 µg lugdunin alone or in combination with S. epidermidis CM for 24 h. Subsequently, S. aureus CFUs were determined. Horizontal lines represent the mean of each group ± s.e.m. c PHKs were treated with 2 μM lugdunin or with S. epidermidis CM alone or in combination for 20 h and subsequently expression of indicated antimicrobial peptides (AMPs) (respective protein names in brackets) was analyzed and normalized to actin. Shown is one representative experiment of three independent experiments with two technical replicates ± s.e.m. d PHKs were treated with 2 µM lugdunin or 100 ng/mL Pam2Cys for 5 h and subsequently the concentration of indicated cytokines in the supernatant was analyzed by LEGENDplex^TM (BioLegend). Shown is one representative experiment of three independent experiments with two technical replicates ± s.e.m. e PHKs were treated with increasing concentrations of lugdunin or 100 ng/mL Pam2Cys or Pam3Cys for 5 h and subsequently expression of chemokine (C-X-C motif) ligand 8 (CXCL8) was analyzed and normalized to actin. Shown is one representative experiment of three independent experiments, each with two technical replicates ± s.e.m. f, g Indicated cells were treated with 2 µM lugdunin or 100 ng/mL Pam2Cys as a positive control for 5 h and subsequently the concentration of CXCL8 (f) and interleukin-1α (IL-1α) (g) in the supernatant was analyzed by LEGENDplex^TM (BioLegend) and enzyme-linked immunosorbent assay (ELISA) (R&D Systems). Shown is one representative experiment of three independent experiments with two technical replicates ± s.e.m. Significant differences to control treatments were analyzed by ordinary one-way analysis of variance (ANOVA) followed by Dunnett’s multiple comparisons test (*P < 0.05; **P < 0.01; ***P < 0.001; ****P < 0.0001). n.d. = not detected. Source data are provided as a Source Data file
Fig. 4 Lugdunin amplifies the commensal-induced chemokine (C-X-C motif) ligand (CXCL8) induction. a Primary human keratinocytes (PHKs) were either treated with 2 μM of human antimicrobial peptides (AMPs) (black bars) or lugdunin (blue bars), or 0.8 μM (pro)-gallidermin or nisin (black bars), or in combination with S. epidermidis conditioned medium (CM) (gray and red striped bars) for 5 h, and subsequently expression of CXCL8 was analyzed and normalized to actin. Shown is one representative experiment of three independent experiments with two technical replicates ± s.e.m. b PHKs were treated with 2 μM human AMPs, 2 μM lugdunin, 0.8 μM of the other bacteriocins (gray bars) or the correspondent peptide combinations (white bars), or 50 ng/mL Pam2Cys, 10 ng/mL IL-1α, or S. epidermidis CM as controls (black bars), for 5 h and subsequently expression of CXCL8 was analyzed and normalized to actin. Shown is one representative experiment of three independent experiments with two technical replicates ± s.e.m. Significant differences to control treatments were analyzed by ordinary one-way analysis of variance (ANOVA) followed by Dunnett’s multiple comparisons test (***P < 0.001; ****P < 0.0001). Source data are provided as a Source Data file
After 5 h or 20 h of peptide treatment, PHKs were washed once with PBS, followed by the addition of RNA lysis buffer directly into the well. Total RNA was extracted using the Nucleospin RNA Kit (Macherey-Nagel) according to the manufacturer’s protocol. […]

[2] = system: HNEpCs; assay: CXCL8 expression in HNEpCs (qRT-PCR); conditions: 5 h, 100 ng/mL Pam2Cys or Pam3Cys, two technical replicates, sheet Supp Fig 1f
Method: (§1) Quantitative reverse transcription-polymerase chain reaction (qRT-PCR) was performed in 10 µL reaction volume with SYBR^TM Green PCR Master Mix (Thermo Fisher) according to the manufacturer’s instructions using a LightCycler 96 (Roche Life Science). The initial denaturation step was at 95 °C for 5 min, followed by 40 cycles with 10 s each for the denaturation step at 95 °C, the annealing at individual temperature, and the elongation at 72 °C. Primer sequences and respective annealing temperatures are listed in Supplementary Table 1. […]
(§2) 31 g+h+i: HNEpCs (b), HTEpCs (c) or PBMCs (d) were treated with increasing
(§3) 32 concentrations of lugdunin (grey bars) or 100 ng/mL Pam2Cys or Pam3Cys (white
(§4) 33 bars) as positive controls for 5 hours and subsequently expression of CXCL8 was
(§5) 34 analyzed and normalized to actin. Black bar: medium control. Shown is one
(§6) 35 representative experiment of three independent experiments with two technical
(§7) 36 replicates +/-s.e.m. Significant differences to control treatments were analyzed by
(§8) 37 ordinary one-way ANOVA followed by Dunnett’s multiple comparisons test (*P<0.05; […]

[3] = system: HTEpCs; assay: CXCL8 expression in HTEpCs (qRT-PCR); conditions: 5 h, 100 ng/mL Pam2Cys or Pam3Cys, two technical replicates, sheet Supp Fig 1g
Method: as §1, §2, §3, §4, §5, §6, §7, §8

[4] = system: PBMCs; assay: CXCL8 expression in PBMCs (qRT-PCR); conditions: 5 h, 100 ng/mL Pam2Cys or Pam3Cys, two technical replicates, sheet Supp Fig 1h
Method: Quantitative reverse transcription-polymerase chain reaction (qRT-PCR) was performed in 10 µL reaction volume with SYBR^TM Green PCR Master Mix (Thermo Fisher) according to the manufacturer’s instructions using a LightCycler 96 (Roche Life Science). The initial denaturation step was at 95 °C for 5 min, followed by 40 cycles with 10 s each for the denaturation step at 95 °C, the annealing at individual temperature, and the elongation at 72 °C. Primer sequences and respective annealing temperatures are listed in Supplementary Table 1.
Human PBMCs were isolated from the peripheral blood of healthy donors upon obtaining informed consent by Ficoll-Histopaque (Biochrom) gradient centrifugation. Cells were washed once in PBS and adjusted to a cell number of 1 × 10^6 mL^−1 in RPMI-1640 medium (Gibco/Life Technologies) containing 10% FBS (Biochrom/Merck Millipore). […]
as §2, §3, §4, §5, §6, §7, §8

Molecule	CXCL8 expression normalized to actin ([1]; 100 ng/mL Pam2Cys or Pam3Cys, medium = 1, technical replicates, Fig 1e)	CXCL8 fold induction [2]	CXCL8 fold induction [3]	CXCL8 fold induction [4]	CXCL8 expression normalized to actin ([1]; 2 µM human AMPs, 2 µM lugdunin, 0.8 µM other bacteriocins or their combinations, 50 ng/mL Pam2Cys, 10 ng/mL IL-1α, S. epidermidis CM, two technical replicates, Fig 4b)
Pam3Cys [reference compound]	1.261 and 1.177	22.316 and 30.696	3.972 and 3.732	2.838 and 2.819	
B1					153.545 and 150.36
